Measurements reported in patent EP2556062B1, “AMIDE DERIVATIVES OF AVENALUMIC ACID, PROCESS FOR PREPARING SAME AND COSMETIC COMPOSITIONS CONTAINING SAME” (Produits Chimiques Auxiliaires et de Synthese, priority 2010, dated 2011).

Columns and labels:
[1] = DPPH radical scavenging test (free-radical trapping); assay type: biochemical; settings: DPPH 0,5mM, 37°C, 30 minutes, absorbance at 517 nm; for % inhibition (C=25µM): compound 25µM; for % inhibition (C=80µM): compound 80µM; for % inhibition (C=): compound
Protocol: Cette étude mesure l'activité antiradicalaire d'un composé par capture du radical DPPH. Ce test est largement utilisé pour étudier la capacité d'un composé à donner un hydrogène.
L'activité se traduit par une décoloration du DPPH (violet). L'absorbance (densité optique DO) a été mesurée à 517 nm au bout de trente minutes sur un spectrophotomètre UV-visible thermostaté à 37°C. Le résultat est exprimé en pourcentage d'inhibition déterminé par la formule : [formula]
Cette activité a été comparée à celle des produits de référence vitamine E, acide férulique et vinylogue de l'acide férulique [dérivé (17)].

[2] = Auto-oxidation by the ferric thiocyanate (FTC) method: AAPH-induced lipid peroxidation of linoleic acid; assay type: biochemical; settings: 25 micromoles; absorbance at 500nm versus time over five hours; activity not superior to that of acide férulique
Source text: Cette méthode met en évidence la capacité de capter le radical peroxyle par le dérivé à tester. La méthode est basée sur une peroxydation lipidique de l'acide linoléique, émulsionné par le Tween 20®.
Cette peroxydation est réalisée par action d'un initiateur de radicaux libres, le dihydrochlorhydrate de 2,2'-azobis(2-amidino)propane (AAPH). Le radical peroxyle formé réagit avec le dérivé à tester et conduit à la formation d'un hydroperoxyde et d'un radical alkoxyle ArO˙. Ce dernier réagit avec le radical peroxyle et permet la formation de produits non radicalaires.
Par ailleurs, les radicaux peroxyle continuent d'oxyder le substrat (l'acide linoléique) pour former également un hydroperoxyde. Cet hydroperoxyde oxyde le fer ferreux présent in situ pour conduire à la formation de fer ferrique Fe^3+ qui se complexe à l'anion thiocyanate.
Le complexe rouge de thiocyanate ferrique formé absorbe à 500nm.
Le degré d'oxydation est quantifié par l'absorbance mesurée. L'activité antioxydante du dérivé à tester est donc la capacité à retarder la peroxydation lipidique. Plus la durée pour atteindre le maximum d'absorbance est longue, plus l'antioxydant est puissant.
Cette étude est réalisée sur une période de cinq heures avec un intervalle de temps d'une heure. Le résultat est exprimé par l'absorbance en fonction du temps. La concentration des molécules dans le milieu est de 25 micromoles.

SMILES | % inhibition (C=25µM) [1] | % inhibition (C=80µM) [1] | % inhibition (C=) [1] | activité antioxydante [2]
COc1cc(/C=C/C(=O)O)ccc1O [Acide férulique, reference compound] | 50% | 78% | 61% | –
Cc1c(C)c2c(c(C)c1O)CC[C@@](C)(CCC[C@H](C)CCC[C@H](C)CCCC(C)C)O2 [Vit.E, vitamine E, reference compound] | 41% | 92% | 86% | –
COC(=O)c1scc(C)c1NC(=O)/C=C/c1ccc(O)c(OC)c1 [compound 3, 3-{[(2E)-3-(4-hydroxy-3-méthoxyphényl)prop-2-ènoyl]amino}-4-méthylthiophène-2-carboxylatede méthyle] | 45% | 72% | 48% | ont une activité antioxydante
COc1cc(/C=C/C(=O)Nc2c(C)csc2C(=O)O)ccc1O [compound 4, Acide 3-{[(2E)-3-(4-hydroxy-3-méthoxyphényl)prop-2-ènoyl]amino}-4-méthylthiophène-2-carboxylique] | 41% | 50% | 31% | ont une activité antioxydante
COc1cc(/C=C/C=C/C(=O)O)ccc1O [compound 17, Acide (2E,4E)-5-[4-hydroxy-3-méthoxyphényl]penta-2,4-diénoique, reference compound] | 62% | 81% | 65% | –
COC(=O)c1scc(C)c1NC(=O)/C=C/C=C/c1ccc(O)c(OC)c1 [compound 21, 3-{[(2E,4E)-5-(4-hydroxy-3-méthoxyphényl)penta-2,4-diènoyl]amino}-4-méthylthiophène-2-carboxylatede méthyle] | 68% | 93% | 74% | ont une activité antioxydante
COc1cc(/C=C/C=C/C(=O)Nc2c(C)csc2C(=O)O)ccc1O [compound 22, Acide 3-{[(2E,4E)-5-(4-hydroxy-3-méthoxyphényl)penta-2,4-diènoyl]amino}-4-méthylthiophène-2-carboxylique] | 50% | 73% | 54% | ont une activité antioxydante
